# Test system: Gfap, IL-1β, IL-6 gene expression in hippocampus
# Assay: Measurement of gene expression in hippocampus of kainic acid intraventricular administration rat
# Type: in vivo
# Details: SD rats, 30 mg/kg by gavage, hippocampus 24 hr after administration
SMILES,effect to decrease expression of a gene of glial fibrillary acidic protein (GFAP) (FIG. 3),effect to decrease expression of a gene of interleukin 1β (IL-1β) (FIG. 4),effect to decrease expression of a gene of interleukin 6 (IL-6) (FIG. 5)
"O=C(c1nccs1)N1CCN([C@@H]2CC(=O)N(c3ccc4c(ccn4-c4ncc(C(F)(F)F)cn4)c3)C2)CC1 [compound 1, (4R)-4-(4-(1,3-thiazol-2-ylcarbonyl)piperazin-1-yl)-1-(1-(5-(trifluoromethyl)pyrimidin-2-yl)-1H-indol-5-yl)pyrrolidin-2-one]",decrease expression,decrease expression,decrease expression

# Target: T1, human MAGL (His-hMAGL) (Homo sapiens, UniProt Q99685)
# T1 construct: made in house; host or cells: Escherichia coli BL21(DE3)
# T1 sequence (Q99685 1-303): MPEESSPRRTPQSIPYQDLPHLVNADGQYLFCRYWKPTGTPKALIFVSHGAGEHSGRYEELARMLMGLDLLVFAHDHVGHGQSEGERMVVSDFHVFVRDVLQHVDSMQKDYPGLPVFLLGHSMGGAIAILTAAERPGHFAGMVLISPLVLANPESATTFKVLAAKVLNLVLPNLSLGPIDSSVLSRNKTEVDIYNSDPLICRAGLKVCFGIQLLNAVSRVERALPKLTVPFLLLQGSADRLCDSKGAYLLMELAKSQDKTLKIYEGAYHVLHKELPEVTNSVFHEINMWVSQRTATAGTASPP
# Assay: Measurement of MAGL inhibitory activity by mass spectrometry
# Type: biochemical
# Details: 10 μM test compound; substrate 2-arachidonylglycerol, arachidonic acid by RapidFire-mass spectrometry
# How it was run: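 His-tagged human MAGL was reacted with 150 μM 2-arachidonylglycerol substrate (stock, added by 5 μL) for 10 min at room temperature, then stopped with formic acid. Arachidonic acid product was quantified by RapidFire–triple-quadrupole MS in negative SRM mode, corrected by arachidonic acid-d8, and converted to percent inhibition.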
row,inhibition at 10 µM,SMILES
1,97%,"O=C(c1nccs1)N1CCN([C@@H]2CC(=O)N(c3ccc4c(ccn4-c4ncc(C(F)(F)F)cn4)c3)C2)CC1 [Example 80, (4R)-4-(4-(1,3-Thiazol-2-ylcarbonyl)piperazin-1-yl)-1-(1-(5-(trifluoromethyl)pyrimidin-2-yl)-1H-indol-5-yl)pyrrolidin-2-one]"

# Target: T1, human MAGL (His-hMAGL)
# Assay: Measurement of MAGL inhibitory activity by absorbance
# Type: biochemical
# Details: 10 μM test compound; substrate p-nitrophenyl acetate, absorbance at 405 nm
# From the text: (1) Cloning of Human MGLL Encoding MAGL Protein and Construction of Expression Plasmid
# Human MGLL cDNA was obtained by PCR using human ORF Clone (DNAForm; Clone ID: 100004585) as a template. For PCR, two kinds of primers: […]
# The obtained PCR product was digested with Bam HI and Not I (Takara Bio Inc.), inserted into the Bam HI/Not I site of pET21HH(V) (pET21a (Novagen) inserted with His x6 and TEV Protease recognition sequence) by using Ligation High (Toyobo Co., Ltd.), and introduced into ECOS™ JM109 (Nippon Gene Co., Ltd.), whereby expression plasmid pET21HH(V)/His-hMGLLv2 for Escherichia coli was constructed. (2) Preparation of Recombinant Polyhistidine Tagged Human MAGL Protein
# Recombinant His-hMAGL protein was prepared by transforming ECOS™ Competent E. coli BL21(DE3) (Nippon Gene Co., Ltd.) with the pET21HH(V)/His-hMGLLv2 plasmid prepared above. Escherichia coli obtained by transformation was inoculated to 10 mL of LB medium (1% peptone, 0.5% yeast extract, 0.5% sodium chloride, 0.01% ampicillin), and cultured at 30° C. for 16 hr. […] When the turbidity of the culture medium reached about 500 Klett unit, the culture temperature was lowered to 16° C., isopropyl-β-D-thiogalactopyranoside (IPTG) was added to a final concentration of 1 mM, and the mixture was further cultured for 19 hr. After the completion of culture, the culture medium was centrifuged (4° C., 6,000 rpm, 10 min) to give His-hMAGL expression Escherichia coli. Then, His-hMAGL expression Escherichia coli was suspended in 50 mM Tris-HCl (pH 8.0, 100 ml) containing 1% Triton X-100, 20 mM imidazole, 3 mM DTT, 5 U/mL Benzonase (Merck) and 150 mM NaCl, sufficiently cooled, and subjected to sonication at […]=60%, 15 sec/ON, 30 sec/OFF for 3 min using ¾″ solid type crushed horn of BRANSON Digital Sonifier 450 (Central Scientific Commerce, Inc.). Furthermore, the homogenate was centrifuged (4° C., 15,000 rpm, 15 min) and the supernatant was obtained. As the purification apparatus, AKTA explorer 10s (GE Healthcare Japan Corporation) was used at 4° C. To the obtained supernatant was added 5M NaCl to the final salt concentration of 0.3 M, and the mixture was flown through and adsorbed to 5 mL of Ni-NTA Superflow Cartridges (QIAGEN) equilibrated in advance with buffer A (50 mM Tris-HCl (pH 8.0) containing 0.05% TritonX-100, 1 mM DTT, 300 mM NaCl). The column was sufficiently washed with buffer A containing 20 mM imidazole and His-hMAGL was eluted with buffer A containing imidazole at a final concentration of 250 mM. The eluate was further subjected to gel filtration using HiLoad 26/600 Superdex 200 pg (GE Healthcare Japan Corporation) equilibrated with 50 mM Tris-HCl pH 8.0 containing 10% glycerol, 0.05% TritonX-100, 1 mM DTT, 150 mM NaCl. The eluted fraction was concentrated by Amicon Ultra-15 10K (Merck Millipore) to give purified His-hMAGL protein. The protein concentration was measured by BCA Protein Assay Kit (Thermo Fisher Scientific) using BSA as the standard.
# (3) Measurement of MAGL Inhibitory Activity
# His-hMAGL obtained above was diluted with enzyme reaction buffer (10 mM Tris-HCl, pH 7.5, 1 mM EDTA, 0.1 (w/v) % Triton X-100) to a concentration of 60 ng/mL. […] Thereafter, to each well was added 750 μM p-nitrophenyl acetate (Wako Pure Chemical Industries, Ltd.) by 5 μL, and the absorbance at 405 nm was measured every 2 minutes up to 10 minutes by EnVision (PerkinElmer). The amount of change was obtained by subtracting the absorbance measured immediately after the start of the reaction from the absorbance measured 10 min after the start of the reaction.
# MAGL inhibitory rate (%) was calculated according to the following calculation formula. (1−(absorbance change amount of test compound addition group−absorbance change amount of enzyme addition-free group)[…](absorbance change amount of test compound addition-free group−absorbance change amount of enzyme addition-free group))×100
row,SMILES,inhibition at 10 µM
1,"O=C(c1nccs1)N1CCN(C2CC(=O)N(c3cccc(-c4ccccn4)c3)C2)CC1 (stereo not shown) [Example 64, 1-(3-(pyridin-2-yl)phenyl)-4-(4-(1,3-thiazol-2-ylcarbonyl)piperazin-1-yl)pyrrolidin-2-one]",90%
2,"O=C(c1nccs1)N1CCN(C2CC(=O)N(c3cccc(-c4cccnc4)c3)C2)CC1 (stereo not shown) [Example 65, 1-(3-(pyridin-3-yl)phenyl)-4-(4-(1,3-thiazol-2-ylcarbonyl)piperazin-1-yl)pyrrolidin-2-one]",93%
3,"O=C(c1nccs1)N1CCN(C2CC(=O)N(c3cccc(-c4ccncc4)c3)C2)CC1 (stereo not shown) [Example 66, 1-(3-(pyridin-4-yl)phenyl)-4-(4-(1,3-thiazol-2-ylcarbonyl)piperazin-1-yl)pyrrolidin-2-one]",91%
4,"O=C(c1nccs1)N1CCN(C2CC(=O)N(c3cccc4ccccc34)C2)CC1 (stereo not shown) [Example 70, 1-(1-naphthyl)-4-(4-(1,3-thiazol-2-ylcarbonyl)piperazin-1-yl)pyrrolidin-2-one]",91%
5,"O=C(c1nccs1)N1CCN(C2CC(=O)N(c3ccc4cc(Br)ccc4c3)C2)CC1 (stereo not shown) [Example 71, 1-(6-brorno-2-naphthyl)-4-(4-(1,3-thiazol-2-ylcarbonyl)piperazin-1-yl)pyrrolidin-2-one]",90%
6,"O=C(c1nccs1)N1CCN(C2CC(=O)N(c3ccc4c(c3)oc3ccccc34)C2)CC1 (stereo not shown) [Example 72, 1-(Dibenzo[b,d]furan-3-yl)-4-(4-(1,3-thiazol-2-ylcarbonyl)piperazin-1-yl)pyrrolidin-2-one]",92%
7,"O=C(c1nccs1)N1CCN(C2CC(=O)N(c3cccc(I)c3)C2)CC1 (stereo not shown) [Example 75, 1-(3-iodophenyl)-4-(4-(1,3-thiazol-2-ylcarbonyl)piperazin-1-yl)pyrrolidin-2-one]",95%
8,"O=C(c1nccs1)N1CCN(C2CC(=O)N(c3cccc(-c4ccc(F)cc4)c3)C2)CC1 (stereo not shown) [Example 76, 1-(4′-fluorobiphenyl-3-yl)-4-(4-(1,3-thiazol-2-ylcarbonyl)piperazin-1-yl)pyrrolidin-2-one]",95%
9,"O=C(c1nccs1)N1CCN(C2CC(=O)N(c3cccc(Nc4ccc(F)cc4)c3)C2)CC1 (stereo not shown) [Example 77, 1-(3-((4-Fluorophenyl)amino)phenyl)-4-(4-(1,3-thiazol-2-ylcarbonyl)piperazin-1-yl)pyrrolidin-2-one]",96%
10,"O=C(c1nccs1)N1CCN(C2CC(=O)N(c3cccc(Oc4ccc(F)cc4)c3)C2)CC1 (stereo not shown) [Example 79, 1-(3-(4-Fluorophenoxy)phenyl)-4-(4-(1,3-thiazol-2-ylcarbonyl)piperazin-1-yl)pyrrolidin-2-one]",95%
11,"O=C(c1nccs1)N1CCN([C@@H]2CC(=O)N(c3ccc4c(ccn4-c4ncc(C(F)(F)F)cn4)c3)C2)CC1 [Example 80, (4R)-4-(4-(1,3-Thiazol-2-ylcarbonyl)piperazin-1-yl)-1-(1-(5-(trifluoromethyl)pyrimidin-2-yl)-1H-indol-5-yl)pyrrolidin-2-one]",100%

# Second part, the compound after the results:
row,inhibition at 10 µM,SMILES
1,97%,"O=C(c1nccs1)N1CCN(C2CC(=O)N(c3ccc4c(cnn4-c4ccc(F)cn4)c3)C2)CC1 (stereo not shown) [Example 81, 1-(1-(5-fluoropyridin-2-yl)-1H-indazol-5-yl)-4-(4-(1,3-thiazol-2-ylcarbonyl)piperazin-1-yl)pyrrolidin-2-one]"
2,95%,"O=C(c1nccs1)N1CCN(C2CC(=O)N(c3ccc4c(ccn4-c4ccc(F)cn4)c3)C2)CC1 (stereo not shown) [Example 82, 1-(1-(5-fluoropyridin-2-yl)-1H-indol-5-yl)-4-(4-(1,3-thiazol-2-ylcarbonyl)piperazin-1-yl)pyrrolidin-2-one]"
3,96%,"O=C(c1nccs1)N1CCN(C2CC(=O)N(c3ccc4c(ccn4-c4ncc(F)cn4)c3)C2)CC1 (stereo not shown) [Example 83, 1-(1-(5-fluoropyrirnidin-2-yl)-1H-indol-5-yl)-4-(4-(1,3-thiazol-2-ylcarbonyl)piperazin-1-yl)pyrrolidin-2-one]"
4,96%,"O=C(c1nccs1)N1CCN(C2CC(=O)N(c3ccc4c(ccn4-c4ncc(Cl)cn4)c3)C2)CC1 (stereo not shown) [Example 84, 1-(1-(5-chloropyrirnidin-2-yl)-1H-indol-5-yl)-4-(4-(1,3-thiazol-2-ylcarbonyl)piperazin-1-yl)pyrrolidin-2-one]"
5,99%,"O=C(c1nccs1)N1CCN(C2CC(=O)N(c3ccc4c(cnn4-c4ccc(F)cc4)c3)C2)CC1 (stereo not shown) [Example 85, 1-(1-(4-Fluorophenyl)-1H-indazol-5-yl)-4-(4-(1,3-thiazol-2-ylcarbonyl)piperazin-1-yl)pyrrolidin-2-one]"
6,99%,"O=C(c1nccs1)N1CCN(C2CC(=O)N(c3ccc4c(cnn4-c4ccc(Cl)cn4)c3)C2)CC1 (stereo not shown) [Example 86, 1-(1-(5-chloropyridin-2-yl)-1H-indazol-5-yl)-4-(4-(1,3-thiazol-2-ylcarbonyl)piperazin-1-yl)pyrrolidin-2-one]"
7,98%,"O=C(c1nccs1)N1CCN(C2CC(=O)N(c3ccc4c(ccn4-c4ccc(Cl)cn4)c3)C2)CC1 (stereo not shown) [Example 87, 1-(1-(5-chloropyridin-2-yl)-1H-indol-5-yl)-4-(4-(1,3-thiazol-2-ylcarbonyl)piperazin-1-yl)pyrrolidin-2-one]"
